Assay results reported in patent publication US11173193B2, “Immunobiological products” (priority 2016, dated 2021).

Tests used:
mice = assay: Ear swelling test of mice, compared to Hostacortin H; type: in vivo
Protocol: Ear erythema was determined by visual inspection and detection of presence (+) or absence (−) signs.
The thickness of the control and experimental ear in all animals was measured with a micrometer. Performance measurements were summed (Σ) separately the right and left ears in groups. The percentage of ear swelling and activity series is calculated using the following formulas: […]

subclinical mastitis = details: known methods of treating mastitis of cows; cited from earlier work
[1] = Solubility of hydro-colloid and chitosan; type: physicochemical
Protocol: Test solution: An adequate sample of Chitosan HCl, Chitosan-HAc, Chitosan, Chitosan-Valeric acid-Hydro Colloid and valeric acid, respectively was dissolved in the solvent above. This mixture was shacked and afterwards sonified in an ultrasonic bath for 5 min.
Sample: Chitosan suspended in water
Result: An acceptable solution of Chitosan in waterish or organic solvents like Methanol etc. is not possible. A suitable solubilization of Chitosan is only possible in stronger acids like HCl or HAc under production of Chitosan HCl or Chitosan HAc.

[2] = Dose 0.1 ml, right ear (allergen provocation site)

CC(=O)OCC(=O)[C@@]1(O)CC[C@H]2[C@@H]3CCC4=CC(=O)C=C[C@]4(C)[C@H]3[C@@H](O)C[C@@]21C [prednisolone-21-acetyl, prednisolone-21-acetate]
Antiallergic activity in Ear swelling test after 2 hours post challenge (mice; Dose 0.1 ml): 14.2% | Antiallergic activity in Ear swelling test after 24 hours post challenge (mice; Dose 0.1 ml): 17.5% | Antiallergic activity in Ear swelling test after 48 hours post challenge (mice; Dose 0.1 ml): 10.7% | Σ Ear thickness after 2 hours post challenge, Left (mice; Dose 0.1 ml, left ear): 335 μm | Σ Ear thickness after 24 hours post challenge, Left (mice; Dose 0.1 ml, left ear): 330 μm | Σ Ear thickness after 48 hours post challenge, Left (mice; Dose 0.1 ml, left ear): 326 μm | Σ Ear thickness after 2 hours post challenge, Right (mice; [2]): 345 μm | Σ Ear thickness after 24 hours post challenge, Right (mice; [2]): 360 μm | Σ Ear thickness after 48 hours post challenge, Right (mice; [2]): 355 μm | inflammatory response in challenged mice (mice; all stages of the experiment): positive dynamics of reducing inflammatory response

CCN(CC)CCOC(=O)c1ccc(N)cc1 [procaine]
recovery time (subclinical mastitis): 3 to 5 days

chitosan
Solubility in water [1]: water insoluble | solution in waterish or organic solvents like Methanol [1]: not possible
